Data set [1] in a line: logP by LC-MS on reversed-phase columns (C 18), method [b], acidic range pH 2.7. The class given is physicochemical. The conditions noted are these: for chromatographic logP: pH 2.7, log p. As to the method:
(§1) The logP values were determined in accordance with EEC Directive 79/831 Annex V.A8 by HPLC (High Performance Liquid Chromatography) on reversed-phase columns (C 18), using the methods below:
[b] The LC-MS determination in the acidic range is carried out at pH 2.7 using the mobile phases 0.1% aqueous formic acid and acetonitrile (contains 0.1% formic acid), linear gradient from 10% acetonitrile to 95% acetonitrile.

The nature of data set [2]: logP by LC-MS on reversed-phase columns (C 18), method [c], neutral range pH 7.8. The class given is physicochemical. How it is done:
as §1
[c] The LC-MS determination in the neutral range is carried out at pH 7.8 using the mobile phases 0.001 molar aqueous ammonium bicarbonate solution and acetonitrile, linear gradient from 10% acetonitrile to 95% acetonitrile.

Data set [3] relates to Leptosphaeria nodorum. Kind of data set: Leptosphaeria nodorum test (wheat) / protective. The format is in vivo. The conditions noted are these: Parastagonospora nodorum, active compound concentration 500 ppm, evaluation 7-9 days after inoculation, read-out: efficacy. As to the method:
Thereafter, the plants are placed in a greenhouse at 90% relative atmospheric humidity and a temperature of 22° C.

[4] abbreviates: method [b], LC-MS, acidic range pH 2.7.
Setting [5] is: method [c], LC-MS, neutral range pH 7.8.

Each structure is given as a SMILES string.

Take `COC(C)c1cccc(Nc2ncc(Br)c(NC3CC3C)n2)c1` (stereo not shown) [Example 226]: the log p is 2.5[b] in data set [1] (setting [4]) and 3.98[c]; in data set [2] (setting [5]).

As to `CNc1nc(Nc2cccc(COC)c2)ncc1Cl` [Example 172], the chromatographic logP amounted to 1.18 in data set [1] and 2.44 in data set [2] (pH 7.8).

In the case of `CCOCCOc1ccc(Nc2ncc(Cl)c(NC3CC3)n2)cc1C(F)(F)F` [Example 185], the figures for the chromatographic logP in data set [1] and in data set [2] (pH 7.8) were 2.91 and 4, respectively.

`Clc1cnc(Nc2cccc(COc3ccc4c(c3)OCO4)c2)nc1NC1CC1` [Example 230]: in data set [2] (pH 7.8), the log p was 3.87[c].

Consider `COCCOc1ccc(Nc2ncc(Cl)c(NC3CC3)n2)cc1Cl` [Example 68], for which, in data set [3], the pest or weed control at 500 ppm was no less than 70%. Further, the chromatographic logP in data set [1] amounted to 2.12.

In the case of `CCCC(C)[S+]([O-])C(C)c1cccc(Nc2ncc(C(F)(F)F)c(NC3CC3)n2)c1` (stereo not shown) [Example 167], the log p in data set [1] (pH 2.7) was 3.34[b]; in data set [2] (pH 7.8), 3.85[c];.

For the molecule `CCS(=O)(=O)C(C)c1cccc(Nc2ncc(Br)c(NC3CC3)n2)c1` (stereo not shown) [Example 154], the log p in data set [1] (pH 2.7) is 1.76[b]; in data set [2] (pH 7.8) it was 2.7[c];.

As to `COCCOC(c1cccc(Nc2ncc(Cl)c(NC3CC3)n2)c1)C(F)(F)F` (stereo not shown) [Example 215], the figures for the log p in data set [1] (pH 2.7) and in data set [2] (pH 7.8) were 2.63[b] and 3.61[c];, respectively.

For `CCSc1cccc(Nc2ncc(C(F)(F)F)c(NC3CCC3C)n2)c1` (stereo not shown) [Example 233], the chromatographic logP in data set [1] stood at 4.89; in data set [2] (pH 7.8), 5.27.

For `COCc1cccc(Nc2ncc(Cl)c(NCC(C)(C)C)n2)c1` [Example 142], the pest or weed control at 500 ppm in data set [3] is no less than 70%. Moreover, in data set [1], the chromatographic logP is 2.48.

As for `COCc1cccc(Nc2ncc(Cl)c(N3CCCCC3)n2)c1` [Example 89], the log p was 3.14[b] in data set [1] (pH 2.7) and 4.2[c]; in data set [2] (pH 7.8).

Take `CCSC(C)c1cccc(Nc2ncc(C(F)(F)F)c(NC3CCCC3)n2)c1` (stereo not shown) [Example 37]: the pest or weed control at 500 ppm in data set [3] was no less than 70%. The chromatographic logP in data set [1] is 5.2.

Turning to `CCOCCOCCSc1cccc(Nc2ncc(Cl)c(NC3CC3)n2)c1` [Example 180], the log p in data set [1] (pH 2.7) is 2.58[b]; in data set [2] (pH 7.8) it was 3.63[c];.

For `CC[S+]([O-])c1cccc(Nc2ncc(C(F)(F)F)c(NC3CC(C)C3)n2)c1` (stereo not shown) [Example 242], the figures for the chromatographic logP in data set [1] and in data set [2] (pH 7.8) were 2.98 and 3.32, respectively.

On to `COCCOC(C)c1cccc(Nc2ncc(Cl)c(NC3CC3)n2)c1` (stereo not shown) [Example 243], for which the results for the chromatographic logP in data set [1] and in data set [2] (pH 7.8) were 2 and 3.26, respectively.

With `CCCSc1cccc(Nc2ncc(Br)c(NC3CC3C)n2)c1` (stereo not shown) [Example 99], the values for the log p in data set [1] (setting [4]) and in data set [2] (setting [5]) were 3.83[b] and 5.09[c];, respectively.

With `CCCS(=O)(=O)c1cccc(Nc2ncc(Br)c(NC3CCC3)n2)c1` [Example 159], the pest or weed control at 500 ppm in data set [3] was no less than 70%. The molecule further gave a chromatographic logP in data set [1] of 2.81.

In the case of `COCC(C)Oc1ccc(Nc2ncc(C(F)(F)F)c(NC3CC3)n2)cc1` (stereo not shown) [Example 88], the results for the log p in data set [1] (pH 2.7) and in data set [2] (pH 7.8) were 2.71[b] and 3.45[c];, respectively.

Regarding `Clc1cnc(Nc2cccc(COc3ccccc3)c2)nc1NC1CC1` [Example 50], the pest or weed control at 500 ppm in data set [3] is no less than 70%. For the same molecule, in data set [1], the chromatographic logP came to 2.92.

As to `COCCOCCOc1ccc(Nc2ncc(C(F)(F)F)c(NC3CC3)n2)cc1C(F)(F)F` [Example 182], the log p was 3.52[b] in data set [1] (pH 2.7) and 3.79[c]; in data set [2] (pH 7.8).

On to `CCCC[S+]([O-])c1cccc(Nc2ncc(C(F)(F)F)c(NC3CC3)n2)c1` (stereo not shown) [Example 122], for which the results for the chromatographic logP in data set [1] and in data set [2] (pH 7.8) were 2.94 and 3.02, respectively.

Consider `COCC(C)Oc1ccc(Nc2ncc(C(F)(F)F)c(NC3CC3)n2)cc1C(F)(F)F` (stereo not shown) [Example 80], for which the log p was 4.05[b] in data set [1] (pH 2.7) and 4.28[c]; in data set [2] (pH 7.8).

`COC(COCc1cccc(Nc2ncc(C(F)(F)F)c(NC3CC3)n2)c1)OC` [Example 237]: the log p in data set [2] (pH 7.8) is 3.37[c].

Consider `COCCOC(C)c1cccc(Nc2ncc(C(F)(F)F)c(NC3CC3)n2)c1` (stereo not shown) [Example 257], for which the values for the chromatographic logP in data set [1] and in data set [2] (pH 7.8) were 3.05 and 3.61, respectively.

Turning to `CCC[S+]([O-])c1cccc(Nc2ncc(C(F)(F)F)c(NC3CC3C)n2)c1` (stereo not shown) [Example 246], the chromatographic logP in data set [1] turned out to be 2.9; in data set [2] (pH 7.8) it was 3.23.

In the case of `COCC(C)Oc1ccc(Nc2ncc(C(F)(F)F)c(NC3CC3)n2)cc1Cl` (stereo not shown) [Example 78], the log p in data set [1] (pH 2.7) is 3.7[b]; in data set [2] (pH 7.8), 3.99[c];.

In the case of `COC(C)c1cccc(Nc2ncc(C(F)(F)F)c(NC3CCCC3)n2)c1` (stereo not shown) [Example 17], in data set [3], the pest or weed control at 500 ppm was no less than 70%. Moreover, the chromatographic logP in data set [1] is 4.13.

For `COCCCOC(C)c1cccc(Nc2ncc(C(F)(F)F)c(NC3CC3)n2)c1` (stereo not shown) [Example 254], the chromatographic logP was 3.49 in data set [1] and 3.98 in data set [2] (pH 7.8).

On to `CCCC(C)SC(C)c1cccc(Nc2ncc(Cl)c(NC3CC3)n2)c1` (stereo not shown) [Example 134], for which the figures for the log p in data set [1] (pH 2.7) and in data set [2] (pH 7.8) were 4.24[b] and 5.55[c];, respectively.

For the molecule `CCOC(COCc1cccc(Nc2ncc(C(F)(F)F)c(NC3CC3)n2)c1)OCC` [Example 238], the chromatographic logP in data set [2] (pH 7.8) is 4.09.

As for `CCN(c1nc(Nc2cccc(COC)c2)ncc1Cl)C1CC1` [Example 137], the values for the log p in data set [1] (pH 2.7) and in data set [2] (pH 7.8) were 3.24[b] and 4.23[c];, respectively.

For `CCOC(C)c1cccc(Nc2ncc(Br)c(NC3CC3C)n2)c1` (stereo not shown) [Example 240], the log p was 2.89[b] in data set [1] (setting [4]) and 4.42[c]; in data set [2] (setting [5]).

`CCOC(C)c1cccc(Nc2ncc(C(F)(F)F)c(NC3CC3)n2)c1` (stereo not shown) [Example 258]: the chromatographic logP in data set [1] is 3.6; in data set [2] (pH 7.8) it was 4.12.

`COCCOC(c1cccc(Nc2ncc(Br)c(NC3CC3)n2)c1)C(F)(F)F` (stereo not shown) [Example 217]: the log p in data set [1] (pH 2.7) is 2.85[b]; in data set [2] (pH 7.8) it was 3.76[c];.

As to `COCc1cccc(Nc2ncc(Cl)c(N3CCOCC3)n2)c1` [Example 90], the results for the log p in data set [1] (pH 2.7) and in data set [2] (pH 7.8) were 2.4[b] and 2.87[c];, respectively.

As for `CSC(C)c1cccc(Nc2ncc(C(F)(F)F)c(NC3CCCC3)n2)c1` (stereo not shown) [Example 16], in data set [3], the pest or weed control at 500 ppm is no less than 70%. Also, the chromatographic logP in data set [1] was 4.48.

With `CCCS(=O)(=O)c1cccc(Nc2ncc(C(F)(F)F)c(NC3CC3C)n2)c1` (stereo not shown) [Example 245], the chromatographic logP came out at 3.43 in data set [1] and 3.61 in data set [2] (pH 7.8).

As to `CCCC[S+]([O-])c1cccc(Nc2ncc(Br)c(NC3CCC3)n2)c1` (stereo not shown) [Example 152], the results for the log p in data set [1] (pH 2.7) and in data set [2] (pH 7.8) were 2.67[b] and 3.5[c];, respectively.

Consider `CCC(CC)Nc1nc(Nc2cccc(COC)c2)ncc1Cl` [Example 144], for which, in data set [3], the pest or weed control at 500 ppm is no less than 70%. Besides, the chromatographic logP in data set [1] was 2.3.

As to `COCc1cccc(Nc2ncc(Cl)c(N3CCCC3)n2)c1` [Example 87], the log p in data set [2] (pH 7.8) was 3.83[c];.

For the molecule `COCCOC(c1cccc(Nc2ncc(C(F)(F)F)c(NCC3CC3)n2)c1)C(F)(F)F` (stereo not shown) [Example 220], the log p in data set [2] (pH 7.8) is 4.2[c].

In the case of `CCOC(CSc1cccc(Nc2ncc(C(F)(F)F)c(NC3CC3)n2)c1)OCC` [Example 236], the log p in data set [2] (pH 7.8) was 4.55[c].

For the molecule `CCS(=O)(=O)c1ccc(Nc2ncc(C(F)(F)F)c(NC3CC3)n2)cc1` [Example 55], in data set [1] (pH 2.7), the log p was 2.66[b].

Broadly, the chromatographic logP is a lipophilicity value derived from retention on a column. High values mean a more lipophilic compound, low ones a more hydrophilic compound.

(Values after patent US20110245284A1, “Alkoxy- and Alkylthio-Substituted Anilinopyrimidines” (Bayer CropScience AG, priority 2008, published 2011).)
